Legend:
Assay type in all cases: in vivo
[1] = test system: Echinochloa oryzacola Vasing.; assay: Test Example 2: herbicidal activity, application during weed generation in submerged conditions; settings: Eighteenth Table; application herbicide amount 141 g/ha
Method in brief: (§1)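 Alluvial soil in Wagner pots flooded to 4 cm water depth; seeds sown mixed, grown in greenhouse at 25–30 °C. At one- to two-leaf stage, emulsion diluted with water to the set rate (g/ha) was applied to the water surface. Effect scored 0–5 by herbicidal ratio three weeks later.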

Scirpus juncoides = assay: as above; settings: Eighteenth Table; application herbicide amount 141 g/ha
Method in brief: as §1

Monochoria vaginalis = assay: as above; settings: Eighteenth Table; application herbicide amount 141 g/ha
Method in brief: as §1

[2] = test system: directly sowed Oryza sativa; assay: Test Example 3: effect on crop by application to foliage (Wagner pot, water depth 0.1-0.5 cm); settings: Nineteenth Table; application to foliage; application herbicide amount 141 g/ha
Method in brief: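 Grading uses six bands of herbicidal ratio, from 0 (≤5%, almost no effect) to 5 (≥90%, almost completely withered). Treatment was a stem-and-leaf spray of diluted emulsion at a fixed g/ha on 14-day-old plants; evaluation after three weeks.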

Triticum aestivum = assay: Test Example 4: effect on crop by application to foliage (diluvial soil, plastic box); settings: application to foliage, 141 g/ha
Method in brief: (§2)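 Scores run from 0 (herbicidal ratio ≤5%) to 5 (≥90%, almost fully withered) and were assessed three weeks after foliar spraying. Seedlings had been raised for 14 days at 25-30° C in sterilized diluvial soil before treatment, with the emulsion diluted in water to the stated g/ha dose.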

Brassica campestris L. = assay: as above; settings: application to foliage, 141 g/ha
Method in brief: as §2

[3] = test system: directly sowed Oryza sativa; assay: as above; settings: application to foliage, 141 g/ha
Method in brief: as §2

[4] = test system: Beta vulgaris ssp. vulgaris; assay: as above; settings: application to foliage, 141 g/ha
Method in brief: as §2

Glycine max = assay: as above; settings: application to foliage, 141 g/ha
Method in brief: as §2

CCN(C)c1nnc2c(C(=O)Nc3nnnn3C)ccc(C(F)(F)F)n12 [2-088]
A (Echinochloa oryzicola Vasing.) herbicidal ratio grade [1]: 4 (Herbicidal ratio of 70% or more and less than 90%)
B (Scirpus juncoides) herbicidal ratio grade (Scirpus juncoides): 3 (Herbicidal ratio of 40% or more and less than 70%)
C (Monochoria vaginalis) herbicidal ratio grade (Monochoria vaginalis): 4 (Herbicidal ratio of 70% or more and less than 90%)
b (effect on crop grade) [2]: 3 (Herbicidal ratio of 40% or more and less than 70%)
effect on crop, e (Triticum aestivum) (Triticum aestivum): 0 (Herbicidal ratio of 5% or less (almost no effect))
effect on crop, g (Brassica campestris L.) (Brassica campestris L.): 5 (Herbicidal ratio of 90% or more (almost completely withered))
effect on crop, d (directly sowed Oryza sativa) [3]: 4 (Herbicidal ratio of 70% or more and less than 90%)
effect on crop, f (Beta vulgaris ssp. vulgaris) [4]: 5 (Herbicidal ratio of 90% or more (almost completely withered))
effect on crop, c (Glycine max) (Glycine max): 0 (Herbicidal ratio of 5% or less (almost no effect))

Source: patent publication US9708314B2, “Heterocyclic amide compound” (NISSAN CHEMICAL INDUSTRIES, LTD., priority 2013, dated 2017)
